The structures appear in SMILES notation.

The source of these data is ChEMBL document CHEMBL5604062, “ASAP - ZIKV NS2B-NS3 protease fluorescence dose response” (2024).

For this test, the target named is Nonstructural protein 3 (Zika virus, UniProt A0A024AXB9). The test is described as follows: Functional biochemical assay to identify treatments for viral infectious disease that targets Zika NS2B-NS3 protease. Utilizing a direct enzyme activity measurement method, reading the fluorescence intensity is used to characterize the relative potency of inhibitors as IC50. More on the design: species or system PRVABC59.
Chain of Nonstructural protein 3 (A0A024AXB9 whole entry): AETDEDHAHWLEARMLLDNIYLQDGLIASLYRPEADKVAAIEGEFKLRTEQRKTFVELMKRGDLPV
Regarding `C[C@H](CC(=O)O)N(C)C(=O)c1cc(Cl)cc(NC(=O)OCc2ccccc2)c1`, the half-maximal inhibitory concentration (IC50) (commonly the concentration that inhibits the measured activity by half) was over 99.5 µM.
Then `Clc1ccc2[nH]cc(Cc3ccc(-c4nn[nH]n4)cc3)c2c1`, with over 99.5 µM; and `C[C@H](CC(=O)O)NC(=O)c1cc(Cl)cc(NC(=O)OCc2ccccc2)c1`, with over 99.5 µM; and `O=C(Nc1cc(Cl)cc(C(=O)Nc2ccccc2[C@@H]2C[C@H]2C(=O)O)c1)OCc1ccccc1`, with over 99.5 µM.
As for `NCc1cc(C(=O)N[C@H]2CCCOC2)cc([C@@H]2C[C@H]2c2cc(Cl)cc(NC(=O)OCc3ccccc3)c2)c1`, the figure is 11.4 µM; as for `O=C(Nc1cc(Cl)cc(C(=O)NCc2ccc(-c3nnn[nH]3)cc2)c1)OCc1ccccc1`, 68.3 µM.
As for `CC(C)(C)NC(=O)[C@H](Nc1cccc(-c2nn[nH]n2)c1)c1cc(Cl)cc(NC(=O)OCc2ccccc2)c1`, the figure is 27.8 µM; as for `O=C(Nc1cc(Cl)cc(C(=O)N2CCC[C@H]2c2nnn[nH]2)c1)OCc1ccccc1`, over 99.5 µM.
Molecule `C=CC[C@H](Nc1ccc(-c2nn[nH]n2)cc1)c1cc(Cl)cc(NC(=O)OCc2ccccc2)c1` yielded an IC50 of 11.3 µM.
As for `NCc1cc(C(=O)N2CCNC(=O)C2)cc([C@@H]2C[C@H]2c2cc(Cl)cc(NC(=O)OCc3ccccc3)c2)c1`, the figure is 14.6 µM.
For `O=C(O)c1cccc(NC(=O)c2cc(Cl)cc3[nH]ncc23)c1`, the IC50 was over 99.5 µM.
Then `O=C(Nc1cc(Cl)cc([C@H]2CN(Cc3ccccc3)C[C@@H]2c2cccc(-c3nn[nH]n3)c2)c1)OCc1ccccc1`, with 6.87 µM; and `CCCNC(=O)[C@H](Nc1cccc(-c2nn[nH]n2)c1)c1cc(Cl)cc(NC(=O)OCc2ccccc2)c1`, with 48.5 µM.
As for `CC(C)NC(=O)[C@H](Nc1cccc(-c2nn[nH]n2)c1)c1cc(Cl)cc(NC(=O)OCc2ccccc2)c1`, the figure is 60.9 µM; as for `O=C(Nc1cc(Cl)cc(C(=O)N2CCC(c3nn[nH]n3)CC2)c1)OCc1ccccc1`, over 99.5 µM.
As for `CN(C)C(=O)c1cc(CN)cc([C@@H]2C[C@H]2c2cc(Cl)cc(NC(=O)OCc3ccccc3)c2)c1`, the figure is 11.9 µM.
As to `C#C[C@H](Nc1cccc(C(=O)O)c1)c1cc(Cl)cc2[nH]ncc12`, the IC50 was over 99.5 µM.
As for `Cc1c(C(=O)Nc2cccc(-c3nnn[nH]3)c2)n[nH]c1-c1ccc(Cl)cc1`, the figure is over 99.5 µM.
Then `COC[C@H](NC(=O)c1cc(Cl)cc(NC(=O)OCc2ccccc2)c1)c1nnn[nH]1`, with over 99.5 µM.
For `CC(C)[C@H](NC(=O)c1cc(Cl)cc(NC(=O)OCc2ccccc2)c1)C(=O)O`, the IC50 is over 99.5 µM.
With `CNC(=O)[C@H](Nc1ccc(-c2nnn[nH]2)cc1)c1cc(Cl)cc(C2CC2)c1`, the IC50 was over 99.5 µM.
Then `O=C(Nc1cc(Cl)cc(C(=O)N2CCC[C@H](c3nnn[nH]3)C2)c1)OCc1ccccc1`, with over 99.5 µM.
Turning to `O=C(Nc1cc(Cl)cc([C@H](Nc2cccc(-c3nn[nH]n3)c2)C(=O)NCc2ccccc2)c1)OCc1ccccc1`, half-maximal inhibition (IC50) required 12.8 µM.
As for `C=CC[C@H](Nc1cc(Cl)cc(NC(=O)OCc2ccccc2)c1)c1cccc(CN)c1`, the figure is 7.69 µM; as for `O=C(Nc1cccc(-c2nnn[nH]2)c1)c1ccc(-c2cccnc2)s1`, over 99.5 µM; as for `CCOC(=O)[C@H]1[C@H](c2cc(Cl)cc(NC(=O)OCc3ccccc3)c2)[C@H]1c1cccc(-c2nnn[nH]2)c1`, 26.9 µM.
Then `NCc1cc(C(=O)N2CCOCC2)cc([C@@H]2C[C@H]2c2cc(Cl)cc(NC(=O)OCc3ccccc3)c2)c1`, with 13.8 µM; and `NCc1cc(/C=C/C(=O)O)cc(NC(=O)c2cc(Cl)cc(NC(=O)OCc3ccccc3)c2)c1`, with 3.17 µM.
Then `CCOC(=O)[C@H]1[C@H](c2cccc(CN)c2)[C@H]1c1cc(Cl)cc(NC(=O)OCc2ccccc2)c1`, with 17.2 µM; and `C=CC[C@H](Nc1cccc(C(=O)O)c1)c1cc(Cl)cc2[nH]ncc12`, with over 99.5 µM; and `Clc1ccc2[nH]cc(Cc3cccc(-c4nn[nH]n4)c3)c2c1`, with over 99.5 µM.
`C=CC[C@H](Nc1cc(Cl)cc(NC(=O)OCc2ccccc2)c1)c1ccc(-c2nn[nH]n2)cc1`: the IC50 is 9.66 µM.
As for `CC(C)CNC(=O)[C@H](Nc1cccc(-c2nn[nH]n2)c1)c1cc(Cl)cc(NC(=O)OCc2ccccc2)c1`, the figure is 31.1 µM.
Then `O=C(Nc1cc(Cl)cc([C@H](Nc2cccc(-c3nn[nH]n3)c2)C(=O)N[C@H]2CCOC2)c1)OCc1ccccc1`, with over 99.5 µM; and `NCCCOc1cc(-c2ccc(N)nc2)cc2c1COB2O`, with over 99.5 µM; and `CCCn1cc(-c2cc(Cl)cc(NC(=O)OCc3ccccc3)c2)c(C(=O)O)n1`, with over 99.5 µM.
As for `N#C[C@H](Nc1cccc(-c2nn[nH]n2)c1)c1cc(Cl)cc2[nH]ncc12`, the figure is over 99.5 µM.
Consider `O=C(Nc1cccc(-n2nn[nH]c2=O)c1)c1cc(Cl)cc(C2CC2)c1`, for which the IC50 is over 99.5 µM.
As to `NC[C@@H]1CN(c2cc(-c3ccc(N)nc3)cc3c2COB3O)C(=O)O1`, the IC50 is over 99.5 µM.
On to `O=C(Nc1cc(Cl)cc([C@H](Nc2cccc(-c3nn[nH]n3)c2)C(=O)NC[C@H]2CCCO2)c1)OCc1ccccc1`, for which the 50% inhibitory concentration (IC50) is over 99.5 µM.
As for `O=C(Nc1cc(Cl)cc([C@H]2C[C@@H]2c2cccc(-c3nnn[nH]3)c2)c1)OCc1ccccc1`, the figure is 27.6 µM; as for `NCc1cc(CO)cc([C@H]2C[C@@H]2c2cc(Cl)cc(NC(=O)OCc3ccccc3)c2)c1`, 10.4 µM; as for `O=C(Nc1cc(Cl)cc(C(=O)N2CCC(C(=O)O)CC2)c1)OCc1ccccc1`, over 99.5 µM.
As for `O=C(Nc1cc(Cl)cc([C@H](Nc2cccc(-c3nn[nH]n3)c2)C(=O)NC2CCOCC2)c1)OCc1ccccc1`, the figure is over 99.5 µM; as for `O=C(Nc1cc(Cl)cc(-c2ccn3c(C(=O)O)cnc3c2)c1)OCc1ccccc1`, over 99.5 µM; as for `O=C(Nc1cc(Cl)cc(-c2ccc3[nH]nc(C(=O)O)c3c2)c1)OCc1ccccc1`, 17.8 µM.
Then `O=C(O)c1cccc(CCc2cc(Cl)cc3[nH]ncc23)c1`, with over 99.5 µM; and `O=C(Nc1cc(Cl)cc(CNc2cccc(-c3nn[nH]n3)c2)c1)OCc1ccccc1`, with 27.3 µM; and `OCC#C[C@H](Nc1ccc(-c2nnn[nH]2)cc1)c1cc(Cl)cc(C2CC2)c1`, with over 99.5 µM.
`O=C(Nc1cc(Cl)cc(-c2ccc3cc(C(=O)O)[nH]c3c2)c1)OCc1ccccc1` gave an IC50 of 11.8 µM. That is a double-digit micromolar value.
Then `O=C(Nc1cc(Cl)cc(-c2ccc3nc(C(=O)O)ncc3c2)c1)OCc1ccccc1`, with 24.7 µM.
As for `NCc1ccc(C(=O)O)c(NC(=O)c2cc(Cl)cc(NC(=O)OCc3ccccc3)c2)c1`, the figure is over 99.5 µM; as for `CC(C)CNC(=O)[C@H](Nc1cccc(-c2nnn[nH]2)c1)c1cc(Cl)cc(C2CC2)c1`, over 99.5 µM; as for `N#Cc1cc(CN)cc([C@H]2C[C@@H]2c2cc(Cl)cc(NC(=O)OCc3ccccc3)c2)c1`, over 99.5 µM.
As for `O=C(Nc1cc(Cl)cc(C(=O)N2CCC[C@H]2C(=O)O)c1)OCc1ccccc1`, the figure is over 99.5 µM.
On to `NCCCOc1cc2c(c(-c3ccc(N)nc3)c1)CCB(O)O2`, for which the IC50 is over 99.5 µM.
Regarding `CC(C)[C@H](N)P(=O)(Oc1ccc(F)cc1)Oc1ccc(F)cc1`, the IC50 is over 99.5 µM.
For `O=C(Nc1cc(Cl)cc(C(=O)NC2(c3nnn[nH]3)CC2)c1)OCc1ccccc1`, the IC50 was over 99.5 µM.
As for `CC(=Cc1cccc(CN)c1)c1cc(Cl)cc(NC(=O)OCc2ccccc2)c1`, the figure is 8.13 µM.
As for `O=C(Nc1cc(Cl)cc([C@H]2Nc3ccc(-c4nn[nH]n4)cc3[C@H]3OCCC[C@@H]23)c1)OCc1ccccc1`, the figure is over 99.5 µM; as for `O=C(Nc1cc(Cl)cc(-c2cc3cc(C(=O)O)ncn3c2)c1)OCc1ccccc1`, over 99.5 µM.
Then `NCc1cccc([C@H](C#CCO)Nc2cc(Cl)cc(NC(=O)OCc3ccccc3)c2)c1`, with 15.6 µM.
The molecule `O=C(Nc1cc(Cl)cc(-c2cnn3ccc(C(=O)O)cc23)c1)OCc1ccccc1` gave an IC50 of over 99.5 µM.
Then `Clc1cccc([C@H](C#Cc2ccccc2)Nc2cccc(-c3nn[nH]n3)c2)c1`, with 16.8 µM; and `CNC(=O)c1cc(CN)cc([C@@H]2C[C@H]2c2cc(Cl)cc(NC(=O)OCc3ccccc3)c2)c1`, with 8.64 µM; and `O=C(Nc1cc(Cl)cc(C(=O)Nc2cc(C(=O)O)ccn2)c1)OCc1ccccc1`, with over 99.5 µM.
As for `CNC(=O)[C@H](Nc1cc(Cl)cc(NC(=O)OCc2ccccc2)c1)c1ccc(-c2nn[nH]n2)cc1`, the figure is over 99.5 µM; as for `COCCNC(=O)[C@H](Nc1cccc(-c2nn[nH]n2)c1)c1cc(Cl)cc(NC(=O)OCc2ccccc2)c1`, over 99.5 µM.
Regarding `CC(=Cc1cccc(-c2nnn[nH]2)c1)c1cc(Cl)cc(NC(=O)OCc2ccccc2)c1`, the IC50 was 12.1 µM.
As for `O=C(O)C[C@H]1CCCN1C(=O)c1cc(Cl)cc(NC(=O)OCc2ccccc2)c1`, the figure is over 99.5 µM; as for `O=C(Nc1cc(Cl)cc(-c2cccc3c(C(=O)O)cccc23)c1)OCc1ccccc1`, 23.1 µM; as for `NCc1cc(Br)cc([C@H]2C[C@@H]2c2cc(Cl)cc(NC(=O)OCc3ccccc3)c2)c1`, 11.6 µM.
Then `C[C@H](C(=O)O)N(C)C(=O)c1cc(Cl)cc(NC(=O)OCc2ccccc2)c1`, with over 99.5 µM.
The molecule `CN(C)CCNC(=O)[C@H](Nc1cccc(-c2nn[nH]n2)c1)c1cc(Cl)cc(NC(=O)OCc2ccccc2)c1` registered an IC50 of over 99.5 µM.
As for `CNC(=O)[C@H](Nc1cccc(-c2nnn[nH]2)c1)c1cc(Cl)cc(C2CC2)c1`, the figure is over 99.5 µM; as for `O=C(Nc1cc(Cl)cc(N[C@H](C#CCO)c2ccc(-c3nn[nH]n3)cc2)c1)OCc1ccccc1`, 52.4 µM; as for `CN(C)C(=O)Nc1cccc([C@@H]2C[C@H]2c2cc(Cl)cc(NC(=O)OCc3ccccc3)c2)c1`, over 99.5 µM.
Turning to `CNC(=O)[C@H](Nc1cc(CN)cc(C(=O)O)c1)c1cc(Cl)cc(NC(=O)OCc2ccccc2)c1`, half-maximal inhibition (IC50) required 1.16 µM.
Consider `CNC(=O)[C@H](Nc1ccc(-c2nn[nH]n2)cc1)c1cc(Cl)cc(NC(=O)OCc2ccccc2)c1`, for which the IC50 was over 99.5 µM.
As for `O=C(Nc1cc(Cl)cc(C(=O)Nc2ccnc(C(=O)O)c2)c1)OCc1ccccc1`, the figure is over 99.5 µM; as for `O=C(Nc1cc(Cl)cc(C(=O)N2CC[C@H](C(=O)O)C2)c1)OCc1ccccc1`, over 99.5 µM.
